Converted amounts (≈) assume the structure as drawn. Bounds are passed on as bounds.

For this assay, the system named is Mycobacterium tuberculosis (multidrugresistant strain). The assay is described as follows: microbe, parasite or virus in culture. The class given is cell-based. Particulars: read-out: MIC, column C, 3(S) compounds.
Regarding `O=[N+]([O-])c1cn2c(n1)OC[C@@H](OCc1ccc(OC(F)(F)F)cc1)C2` [PA-824, 3S 4-(Trifluromethoxy)benzyloxy-6-nitro-2H-3,4-dihydro-[2-1b]imidazopyran], the MIC came to 0.13 µg/mL (≈ 0.362 µM). For `O=[N+]([O-])c1cn2c(n1)OC[C@@H](OCc1ccc(OCc3ccccc3)cc1)C2` [PA-647] the value was no more than 0.015 µg/mL; for `CCCCc1ccc(CO[C@@H]2COc3nc([N+](=O)[O-])cn3C2)cc1` [PA-822], no more than 0.015 µg/mL; for `CC(C)(C)c1ccc(CO[C@@H]2COc3nc([N+](=O)[O-])cn3C2)cc1` [PA-653], no more than 0.015 µg/mL.

For the origin of these results see US6087358A (priority 1997, dated 2000).
